What all share (type): cell-based
The target in test [1] is T1, GALR3 mutant L^184M,V^186I,A^187C, A^190V,A^191F (Homo sapiens, UniProt O60755, A187C/A190V/A191F/L184M/V186I).
T1 construct: expressed in transfected cells; host or cells: HEK293 cells stably expressing Gqi
Description: SRE-luc luciferase assay, GALR3 pentuple mutant (A191F). The conditions noted are these: GALR3 L^184M,V^186I,A^187C, SRE-luc in HEK293 Gqi cells, ligand 6 h, mean ± S.E., SEM. An excerpt: (§1) For domain swapping between GALR2 and GALR3, individual cDNA fragments of interest were amplified by polymerase chain reaction (PCR) with Pfu polymerase (ELPIS Biotech, Daejeon, Korea) and two specific primers, one corresponding to the 5' or 3' end of the GALR2 or GALR3 cDNA and the other to the region of overlap between the two receptors. The two resulting fragments, one from GALR2 and the other from GALR3, were subjected to a second round of PCR to generate the chimeric cDNAs. To construct single, double-, triple-, pentuple-, hextuple-, and septuple-mutant receptors, amino acids of GALR3 were substituted for the amino acids at the corresponding positions in GALR2 using PCR-based site-directed mutagenesis. All of the chimeric constructs were cloned into the pcDNA3 expression vector at HindⅢ and XbaⅠ sites. The DNA sequences of the chimeras were verified by automatic sequencing. […] The luciferase activity in 50 μl cell extract was determined using a luciferase assay system according to the standard protocol for the Synergy 2 Multi-Mode Microplate Reader (BioTek, Winooski, VT, USA). […] The concentrations of agonists that induced half-maximal stimulation (EC50) were calculated using the GraphPad PRISM5 software (GraphPad software, Inc., San Diego, CA). […]

Test [2] has as its target T2, GALR3 triple mutant L^100F, Y^103F, Y^107H (Homo sapiens, UniProt O60755, L100F/Y103F/Y107H).
T2 construct: expressed in transfected cells; host or cells: HEK293 cells stably expressing Gqi
T2 sequence (O60755 1-368 L100F/Y103F/Y107H): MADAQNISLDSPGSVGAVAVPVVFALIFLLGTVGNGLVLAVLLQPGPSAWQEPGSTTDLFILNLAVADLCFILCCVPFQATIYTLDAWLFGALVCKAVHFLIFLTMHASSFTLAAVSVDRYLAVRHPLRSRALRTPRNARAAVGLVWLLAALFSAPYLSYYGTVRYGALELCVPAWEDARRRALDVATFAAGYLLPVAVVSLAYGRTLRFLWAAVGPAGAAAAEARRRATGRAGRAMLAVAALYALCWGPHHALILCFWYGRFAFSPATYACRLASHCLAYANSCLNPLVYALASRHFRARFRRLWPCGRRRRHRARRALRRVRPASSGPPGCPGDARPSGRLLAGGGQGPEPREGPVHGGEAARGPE
Description: SRE-luc luciferase assay, GALR3 L100F,Y103F,Y107H. The conditions noted are these: GALR3 L^100F, SRE-luc in HEK293 Gqi cells, ligand 6 h, mean ± S.E., SEM.
Source text: as §1, with “sequencing. HEK293 cells stably expressing the Gqi construct, which allows induction of Gq-dependent signaling pathways upon activation of a Gi-coupled receptor [14, 30], were maintained in Dulbecco's Modified Eagle's Medium (DMEM) in the presence of 10% fetal bovine serum and 1% penicillin and streptomycin. For all transfections, 200 ng DNA (100 ng receptor and 100 ng SRE-luc) mixed with lipofectamine 2000 was applied to 60–80% confluent cells on a multi-well plate according to the manufacturer's instructions (Invitrogen, Carlsbad, CA). For luciferase assays, HEK293 Gqi cells were seeded on 48-well plates at a density of 2.5 × 10^4 cells/well one day before transfection.” for “sequencing.”

The target in test [3] is T3, GALR3 mutant L^184M,V^186I,A^190V (Homo sapiens, UniProt O60755, A190V/L184M/V186I).
T3 construct: expressed in transfected cells; host or cells: HEK293 cells stably expressing Gqi
T3 sequence (O60755 whole entry L184M/V186I/A190V): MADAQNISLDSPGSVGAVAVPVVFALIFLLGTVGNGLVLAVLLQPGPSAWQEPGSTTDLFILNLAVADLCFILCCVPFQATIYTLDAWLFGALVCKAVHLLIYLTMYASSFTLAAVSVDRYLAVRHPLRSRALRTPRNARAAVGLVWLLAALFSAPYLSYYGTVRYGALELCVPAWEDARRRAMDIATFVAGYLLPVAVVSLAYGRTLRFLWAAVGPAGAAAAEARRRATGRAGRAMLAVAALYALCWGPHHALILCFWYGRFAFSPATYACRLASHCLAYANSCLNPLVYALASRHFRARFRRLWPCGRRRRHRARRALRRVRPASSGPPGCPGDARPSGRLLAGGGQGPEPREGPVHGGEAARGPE
Description: SRE-luc luciferase assay, GALR3 L184M,V186I,A190V. The conditions noted are these: GALR3 L^184M,V^186I,A^190V; SRE-luc in HEK293 Gqi cells, ligand 6 h; mean ± S.E.; SEM.
Source text: as §1

Test [4] has as its target T4, GALR3 mutant L^184M,V^186I,A^187C (Homo sapiens, UniProt O60755, A187C/L184M/V186I).
T4 construct: expressed in transfected cells; host or cells: HEK293 cells stably expressing Gqi
Description: SRE-luc luciferase assay, GALR3 L184M,V186I,A187C. The conditions noted are these: GALR3 L^184M,V^186I,A^187C; SRE-luc in HEK293 Gqi cells, ligand 6 h; mean ± S.E.; SEM.
Source text: as §1

Test [5] concerns the target T5, GALR3 single mutant A^190V (Homo sapiens, UniProt O60755, A190V).
T5 construct: expressed in transfected cells; host or cells: HEK293 cells stably expressing Gqi
Description: SRE-luc luciferase assay, GALR3 A190V. The conditions noted are these: GALR3 A^190V; SRE-luc in HEK293 Gqi cells, ligand 6 h; mean ± S.E.; SEM.
Source text: as §1

Test [6] concerns the target T6, GALR3 mutant A^190V,A^191F,G^192S (Homo sapiens, UniProt O60755, A190V/A191F/G192S).
T6 construct: expressed in transfected cells; host or cells: HEK293 cells stably expressing Gqi
As to the kind of experiment: SRE-luc luciferase assay, GALR3 A190V,A191F,G192S. The conditions noted are these: GALR3 A^190V,A^191F,G^192S; SRE-luc in HEK293 Gqi cells, ligand 6 h; mean ± S.E.; SEM.
Source text: as §1

In test [7] the target is T7, GALR3 mutant L^184M,V^186I,A^187C, A^190V,G^192S (Homo sapiens, UniProt O60755, A187C/A190V/G192S/L184M/V186I).
T7 construct: expressed in transfected cells; host or cells: HEK293 cells stably expressing Gqi
T7 sequence (O60755 whole entry L184M/V186I/A187C/A190V/G192S): as the sequence (O60755 whole entry L184M/V186I/A190V) above, with A187C, G192S counted along it
As to the kind of experiment: SRE-luc luciferase assay, GALR3 pentuple mutant (G192S). The conditions noted are these: GALR3 L^184M,V^186I,A^187C, SRE-luc in HEK293 Gqi cells, ligand 6 h, mean ± S.E., SEM.
Source text: as §1

In test [8] the target is T8, GALR3 mutant L^184M,V^186I,A^187C, A^190V,A^191F,G^192S (Homo sapiens, UniProt O60755, A187C/A190V/A191F/G192S/L184M/V186I).
T8 construct: expressed in transfected cells; host or cells: HEK293 cells stably expressing Gqi
T8 sequence (O60755 whole entry L184M/V186I/A187C/A190V/A191F/G192S): as the sequence (O60755 whole entry L184M/V186I/A190V) above, with A187C, A191F, G192S counted along it
As to the kind of experiment: SRE-luc luciferase assay, GALR3 hextuple mutant. The conditions noted are these: GALR3 L^184M,V^186I,A^187C, SRE-luc in HEK293 Gqi cells, ligand 6 h, mean ± S.E., SEM.
Source text: as §1

Test [9] addresses T9, GALR3 single mutant A^187C (Homo sapiens, UniProt O60755, A187C).
T9 construct: expressed in transfected cells; host or cells: HEK293 cells stably expressing Gqi
Description: SRE-luc luciferase assay, GALR3 A187C. The conditions noted are these: GALR3 A^187C; SRE-luc in HEK293 Gqi cells, ligand 6 h; mean ± S.E.; SEM.
Source text: as §1

Test [10] addresses T10, GALR3 single mutant L^184M (Homo sapiens, UniProt O60755, L184M).
T10 construct: expressed in transfected cells; host or cells: HEK293 cells stably expressing Gqi
Description: SRE-luc luciferase assay, GALR3 L184M. The conditions noted are these: GALR3 L^184M; SRE-luc in HEK293 Gqi cells, ligand 6 h; mean ± S.E.; SEM.
Source text: as §1

Ends that are not written are not given here.

Our source for the EC50 values is publication PMC7108740, “Exploring the molecular structures that confer ligand selectivity for galanin type II and III receptors” (PLoS ONE, 2020).

T6 sequence (O60755 whole entry A190V/A191F/G192S): as the sequence (O60755 whole entry L184M/V186I/A190V) above, with M184L, I186V, A191F, G192S counted along it
T9 sequence (O60755 whole entry A187C): as the sequence (O60755 whole entry L184M/V186I/A190V) above, with M184L, I186V, A187C, V190A counted along it
T4 sequence (O60755 whole entry L184M/V186I/A187C): as the sequence (O60755 whole entry L184M/V186I/A190V) above, with A187C, V190A counted along it
T1 sequence (O60755 whole entry L184M/V186I/A187C/A190V/A191F): as the sequence (O60755 whole entry L184M/V186I/A190V) above, with A187C, A191F counted along it
T5 sequence (O60755 whole entry A190V): as the sequence (O60755 whole entry L184M/V186I/A190V) above, with M184L, I186V counted along it
T10 sequence (O60755 whole entry L184M): as the sequence (O60755 whole entry L184M/V186I/A190V) above, with I186V, V190A counted along it

As for `CSCC[C@H](NC(=O)[C@H](C)NC(=O)[C@H](CCC(N)=O)NC(=O)[C@@H]1CCCN1C(=O)[C@@H](NC(=O)[C@H](Cc1c[nH]c2ccccc12)NC(=O)[C@@H](N)CC(N)=O)[C@@H](C)O)C(=O)N[C@@H](CC(C)C)C(=O)N[C@@H](Cc1ccc(O)cc1)C(=O)N[C@@H](CC(C)C)C(=O)N[C@@H](CCCCN)C(=O)NCC(=O)N[C@@H](C)C(=O)N[C@@H](CCC(N)=O)C(N)=O` [SPX, reference compound], the EC50 in test [1] turned out to be 50.1 ± 16.2 nM; in test [2], 30.9 ± 9.03 nM; in [3], 49 ± 16.6 nM; in test [4], 115 ± 2.61 nM; in test [5], 77.6 ± 18.7 nM; in [6], 33.9 ± 11 nM. Further, the EC50 in [7] amounted to 33.9 ± 9.89 nM; in [8], 25.7 ± 7.92 nM; in test [9], 115 ± 27.7 nM; in [10], 46.8 ± 15.9 nM.

Consider NWTPNAMLYLKGAQ-NH2 [N^5-SPX], for which the EC50 in [2] came out at 83.2 ± 26.9 nM.

For the compound NWTPQAALYLKGAQ-NH2 [A^7-SPX], the EC50 in test [2] was 64.6 ± 12.1 nM.

As to NWTPQAMLYLKGPQ-NH2 [P^13-SPX], the EC50 in test [1] was 141 ± 36.5 nM; in [3], 324 ± 89.2 nM; in test [4] it was 457 ± 118 nM; in test [5] it was 468 ± 105 nM; in test [6], 123 ± 39.8 nM; in [7], 145 ± 24.3 nM. Moreover, the EC50 stood at 112 ± 25.1 nM in test [8], 550 ± 151 nM in test [9] and 437 ± 89.8 nM in test [10].
